Patent publication EP0170623B1, “Novel pharmaceutical use of (NVA)2-cyclosporine” (SANDOZ AG, priority 1984, dated 1990)

Test system: Experimental Autoimmune Uveitis (EAV)
Conditions: 25 to 50 mg/kg/day i.m. on 7 consecutive days commencing 7 days after immunization with bovine S antigen; histopathology on day 14; compared with olive oil control groups

(Nva)^2-Cyclosporine
number of animals evidencing EAV: substantial reduction
